Like-named read-outs stand apart in the source and are kept apart here.
Tests used:
[1] = Population pharmacokinetic model of clinical plasma concentration data, manual stepwise forward inclusion/backward elimination (NONMEM); format: in vivo, human; details: final stepwise model, IV
Procedure: Manual stepwise model results were taken from the literature or were generated from unpublished data (DMAG) or data reported elsewhere in the literature. These models were determined using similar methods. Briefly, for each compound, a covariate free model was used to select the model compartment structure with the combination of inter-individual and residual variability structures resulting in the lowest objective function value calculated by NONMEM (twice the negative log likelihood plus a fixed constant offset) and a reasonable distribution of residuals as the base model.
Univariate evaluations of covariates were then performed. […] The covariate and its function form that (1) yielded the lowest objective function conditional on (2) improved the objective function value by at least 3.84 (citalopram, DMAG, and [14, 15, 17, 21]) or 7.88 [16] points compared to the base model (which corresponds to Chi-squared values of p = 0.05 and p = 0.005 with one degree of freedom, respectively) and (3) in which there appeared to be a graphical relationship between the deviation in an individual predicted value and the covariate value across individual predicted values was included in the model. The remaining covariates were then included individually in the updated model, the inclusion criteria evaluated, and the model sequentially updated with additional covariates until no further covariates met the model inclusion criteria.
Finally, individual covariates were removed from the final model and the change in the objective function was calculated. Covariates were excluded from the final model if, when the covariate was removed, the objective function value increased by less than 3.84 (citalopram, DMAG, [14, 15, 21]), 6.63 [17] (a Chi-squared value of p = 0.01 with one degree of freedom), or 7.88 [16]. Although the models were derived using different versions of NONMEM, the final models reported in the literature were re-run in NONMEM VI, Level 1.0 using Fortran G77 and NONMEM VII, version 7.2 with Intel Fortran to confirm that the results were independent of the NONMEM version.
All continuous covariates were centered at zero.

[2] = human, in vivo
Text: (§1) Individuals who received oral olanzapine [14], perphaenazine [15], risperidone [16], or ziprasidone [17] were patients treated between January 2001 and December 2004 as part of the Clinical Antipsychotic Trials of Intervention Effectiveness (CATIE)—a multisite, US study of randomized, double-blind, medication comparative-effectiveness trial—in the treatment of Alzheimer’s (CATIE-AD) and schizophrenia (CATIE-SZ). […] Individuals who received intravenous citalopram were part of a cross sectional study of healthy volunteers participating in Pittsburgh’s Adult and Human Behavior Project; these individuals were between the ages of 30 and 55 years and not taking medications for hypertension, lipid disorders, or diabetes [22]. Individuals who received intravenous DMAG were cancer patients either at Pittsburgh’s Cancer Institute or at Memorial Sloan-Kettering participating in a phase II study.
(§2) The SOHGA operates on a set of candidate models in which each candidate specifies covariates included the in model, their functional forms, the structure of the inter-individual and residual variability, and the initial pharmacokinetic model parameter estimates [3]. Special-use software in which the SOHGA, coded and run in Microsoft Visual Studio and Compaq Digital Fortran, creates NONMEM control files to fit parameters and calculate the fitness of candidate models using NONMEM VI, Level 1.0 or NONMEM VII, version 7.2 using either first-order (risperidone only) or first-order conditional estimation with interaction using Xpose [23].
(§3) The SOHGA retained a population of 200–400 candidate models for 30–50 generations. A total of 0.7 crossover events were expected per set of parents. Candidate models for crossover were randomly selected based on scaled fitness function values; linear regression was performed using all fitness functions within two standard deviations of the mean, the fitness of the regression values were scaled to between 0.2 and 4, and outlying values were assigned one of these extreme values. This scaling of the fitness function improves convergence by not permitting outliers to dominate the selection process. The mutation rate was 0.01 mutations per bit. The candidate model with best fitness function was retained to the next generation, a technique known as elitism. Niche evaluation (where a niches differ by <4 bits) was performed. In niche evaluation, a penalty is applied to models that are similar to other models (differ by 4 or fewer bits). This prevents early convergence, maintaining diversity in the population. Four niches were used, insuring that at least four regions of the search space were explored in each phase of the search. A simple downhill search was performed every five generations. In the downhill search, each bit of the best model in each niche in reversed (0 to 1, 1 to 0) and the resulting models run. For example, if the bit string if of length 40, the downhill search will generate 40 new models for each niche that each differ by a single bit. If any of the resulting models are better than the current best model for that niche, the process is repeated with that model, until no further improvement is seen. Finally, timeout conditions were set where NONMEM timed out (terminated without completion failing convergence) after up to 600 min for a model and a generation timed out after up to 6,000 min although the exact timeout conditions varied by compound.

clinical = details: human, in vivo, iv
Text: as §1, §2, §3

[3] = Population pharmacokinetic model of clinical plasma concentration data, single-objective hybrid genetic algorithm (SOHGA) coupled to NONMEM; details: best SOHGA candidate model
Text: as §1, §2, §3

[4] = final stepwise model, oral, cited from earlier work; for Volume of distribution (L)—TVV / Clearance (L/h)—TVCL: one compartment with absorption; for Volume of distribution (L)—TVV: (relative standard error; perphenazine: 95 % CI from bootstrapping); for Absorption rate constant (1/h)—TVKA: fixed based on literature, not estimated
[5] = three compartment, (relative standard error)
[6] = IV, three compartment, (relative standard error)
[7] = CYP2C19 genotype, (relative standard error)
[8] = 3 component mixture for clearance, FO, (relative standard error)
[9] = 3 component mixture for clearance
[10] = oral, one compartment with absorption, (relative standard error)

CN(C)CCCC1(c2ccc(F)cc2)OCc2cc(C#N)ccc21 (stereo not shown) [Citalopram, citalopram]
Inter-individual variability—ωQ of ηQ ([1]; standard deviation ω): 48.5 % (NA)
Inter-individual variability—ωV1 of ηV1 ([1]; standard deviation ω): 12.2 % (NA)
Inter-individual variability—ωV2 of ηV2 ([1]; standard deviation ω): 22.6 % (NA)
Central volume (L)—TVV1 ([1]; two compartment): 2.87 (NA) L
Peripheral volume (L)—TVV2 ([1]; two compartment): 1,510 (NA) L
clearance ([1]; human, plasma, 0.33 mg/kg lean body mass, typical value (relative standard error), read-out: Clearance (L/h)—TVCL (converted)): 7.11 L/h
Central volume (L)—TVV1 ([2]; iv): 82.1 (17.7 %) L
Inter-comp clearance (L/h)—TVQ ([2]; iv): 6.26 (19.0 %) L/h
Inter-individual variability—ωQ of ηQ ([2]; iv): 35.5 % (19.0 %)
Inter-individual variability—ωV1 of ηV1 ([2]; iv): 46.2 % (15.5 %)
Inter-individual variability—ωV2 of ηV2 ([2]; iv): 25.4 % (12.5 %)
Peripheral volume (L)—TVV2 ([2]; iv): 205 (12.6 %) L
clearance (clinical): 20.3 mL/min

CO[C@H]1/C=C\C=C(/C)C(=O)NC2=CC(=O)C(NCCN(C)C)=C(C[C@@H](C)C[C@H](OC)[C@H](O)[C@@H](C)/C=C(\C)[C@@H]1OC(N)=O)C2=O [DMAG, 17-(dimethylaminoethylamio)-17-demethoxygeldanamycin]
Inter-occasion variability (first compartment volume) [1]: 59.7 % (31.2 %)
Inter-occasion variability—ωQ1 of ηOCC,Q1 [1]: 32.6 % (37.2 %)
Inter-patient variability—ωQ2 of ηQ2 [1]: 75.8 % (32.0 %)
Inter-patient variability—ωV3 of ηV3 [1]: 67.5 % (37.3 %)
Inter-individual variability—ωV1 of ηV1 ([1]; standard deviation ω): 33.0 % (111.9 %)
Inter-individual variability—ωV2 of ηV2 ([1]; standard deviation ω): 50.7 % (23.7 %)
Inter-patient variability—ωCL of ηCL ([1]; standard deviation ω): 53.8 % (22.9 %)
First compartment volume (L)—TVV1 [1, 5]: 27.4 (11.7 %) L
Second compartment volume (L)—TVV2 [1, 5]: 66.4 (10.1 %) L
Third compartment volume (L)—TVV3 [1, 5]: 142 (13.5 %) L
Clearance (L/h)—TVCL ([1]; typical value (relative standard error)): 8.4 (11.2 %) L/h
Inter-individual variability—ωV1 of ηV1 ([3]; IV): 39.7 % (24.5 %)
Inter-individual variability—ωV2 of ηV2 ([3]; IV): 42.3 % (24.8 %)
Inter-occasion variability—ωCL of ηOCC,CL ([3]; IV): 8.3 % (38.6 %)
Inter-occasion variability—ωQ1 of ηOCC,Q1 ([3]; IV): 14.0 % (32.7 %)
Inter-patient variability—ωCL of ηCL ([3]; IV): 22.1 % (29.1 %)
First compartment volume (L)—TVV1 [3, 6]: 28.1 (12.9 %) L
Second compartment volume (L)—TVV2 [3, 6]: 77.9 (11.4 %) L
Third compartment volume (L)—TVV3 [3, 6]: 86.4 (8.5 %) L
Clearance (L/h)—TVCL ([3]; IV, typical value (relative standard error)): 9.28 (7.9 %) L/h

CN(C)CCC[C@@]1(c2ccc(F)cc2)OCc2cc(C#N)ccc21 [Escitalopram, escitalopram]
Absorption rate constant (1/h)—TVKA ([2]; po): 0.594 (23.1 %) 1/h
Clearance (L/h)—TVCL ([2]; po): 25.5 (5.3 %) L/h
Inter-individual variability—ωV of ηV ([2]; po): 59.4 % (32.6 %)
Volume of distribution (L)—TVV ([2]; po): 874 (11.8 %) L
Clearance (L/h)—TVCL, Missing metabolizer information ([4]; (relative standard error)): 21.5 (7.80 %) L/h
Clearance (L/h)—TVCL, Extensive metabolizer [4, 7]: 26 (7.20 %) L/h
Clearance (L/h)—TVCL, Poor metabolizer [4, 7]: 19.8 (8.50 %) L/h
Inter-individual variability—ωV of ηV [4]: 62.0 % (40.3 %)
Volume of distribution (L)—TVV [4]: 947 (10.2 %) L

Cc1cc2c(s1)Nc1ccccc1N=C2N1CCN(C)CC1 [Olanzapine, olanzapine]
Absorption rate constant (1/h)—TVKA ([2]; po): 0.773 (70.4 %) 1/h
Clearance (L/h)—TVCL ([2]; po): 21.1 (15.5 %) L/h
Inter-individual variability—ωCL of ηCL ([2]; po): 64.7 % (17.2 %)
Volume of distribution (L)—TVV ([2]; po): 4,130 (48.9 %) L
Inter-individual variability—ωCL of ηCL [4]: 68%
Inter-individual variability—ωV of ηV [4]: 86%
Absorption rate constant (1/h)—TVKA [4]: Fixed at 0.5 1/h
Clearance (L/h)—TVCL ([4]; (relative standard error)): 16.1 (7.3 %) L/h
Volume of distribution (L)—TVV [4]: 2,150 (26.0 %) L

OCCN1CCN(CCCN2c3ccccc3Sc3ccc(Cl)cc32)CC1 [Perphenazine, perphenazine]
Absorption rate constant (1/h)—TVKA ([2]; po): 0.859 (80.7 %) 1/h
Clearance (L/h)—TVCL ([2]; po): 354 (12.3 %) L/h
Inter-individual variability—ωCL of ηCL ([2]; po): 78.8 % (11.4 %)
Volume of distribution (L)—TVV ([2]; po): 1.10x10^7 (172 %) L
Clearance (L/h)—TVCL ([4]; (relative standard error)): 483 L/h
Volume of distribution (L)—TVV [4]: 18,200 (13,865 - 65,795) L

Cc1nc2n(c(=O)c1CCN1CCC(c3noc4cc(F)ccc34)CC1)CCCC2 [Risperidone, risperidone]
Absorption rate constant (1/h)—TVKA ([2]; po): 0.184.(21.1 %) 1/h
Central volume—TVV1 ([2]; po): 96.6 (31.2 %)
Clearance (L/h)—TVCL, Extensive metabolizer ([2]; po): 122 (11.5 %) L/h
Clearance (L/h)—TVCL, Intermediate metabolizer ([2]; po): 34.9 (8.9 %) L/h
Clearance (L/h)—TVCL, Poor metabolizer ([2]; po): 12.4 (8.5 %) L/h
Inter-comp clearance—TVQ ([2]; po): 27.1 (29.9 %)
Inter-individual variability—η^(V1) ([2]; po): 478 % (46.4 %)
Inter-individual variability—ωCL of ηCL ([2]; po): 7.3 % (32.2 %)
Percent of subjects who were extensive metabolizers ([2]; po): 41.4 % (8.6 %)
Percent of subjects who were poor metabolizers ([2]; po): 22.4 % (4.4 %)
Peripheral volume—TVV2 ([2]; po): 1.31x10^10 (1,000 %)
Clearance (L/h)—TVCL, Extensive metabolizer [4, 8]: 65.4 (9.9 %) L/h
Clearance (L/h)—TVCL, Poor metabolizer [4, 8]: 12.9 (6.5 %) L/h
Inter-individual variability—ωCL of ηCL, Extensive metabolizer [4, 9]: 56.6 % (16.8 %)
Inter-individual variability—ωCL of ηCL, Poor metabolizer [4, 9]: 95.9 % (39.5 %)
Percent of subjects who were extensive metabolizers [4, 9]: 52.4 % (6.2 %)
Percent of subjects who were poor metabolizers [4, 9]: 41.2 % (8.1 %)
Inter-individual variability—ωKA of ηKA [4]: 53.7 % (89.3 %)
Inter-individual variability—ωV of ηV [4]: 36.1 % (24.4 %)
Absorption rate constant (1/h)—TVKA [4]: Fixed at 1.7 1/h
Volume of distribution (L)—TVV [4]: 444 (17.8 %) L

O=C1Cc2cc(CCN3CCN(c4nsc5ccccc45)CC3)c(Cl)cc2N1 [Ziprasidone, ziprasidone]
Absorption rate constant (1/h)—TVKA ([2]; po): 0.424 (5.8 %) 1/h
Inter-individual variability—ωCL of ηCL ([2]; po): 69.0 % (21.4 %)
Inter-individual variability—ωV of ηV ([2]; po): 114 % (16.0 %)
Inter-individual variability—ωCL of ηCL [4]: 64.8 % (25 %)
Inter-individual variability—ωV of ηV [4]: 104.4 % (27 %)
Absorption rate constant (1/h)—TVKA [4]: Fixed at 0.5 1/h
Clearance (L/h)—TVCL ([4]; (relative standard error)): 122 (9 %) L/h
Volume of distribution (L)—TVV [4]: 1,060 (19 %) L
Clearance (L/h)—TVCL [3, 10]: 126 (9.0 %) L/h
Volume of distribution (L)—TVV [3, 10]: 1,030 (12.4 %) L

— publication PMC3400037, “Application of a single-objective, hybrid genetic algorithm approach to pharmacokinetic model building” (Journal of Pharmacokinetics and Pharmacodynamics, 2012)
